The test system of assay [1] is HCMV recombinant mutant virus whose genome contains the prokaryotic beta-glucuronidase gene. The assay can be described thus: microbe, parasite or virus in culture. It counts as cell-based, human cytomegalovirus. As to conditions: Human betaherpesvirus 5, Fibroblast. The text has this:
Microtiter plate assay. Ninety-six well plate cultures of human foreskin fibroblasts are infected in the presence of inhibitor compound with a HCMV recombinant mutant virus whose genome contains the prokaryotic beta-glucuronidase gene (Jefferson, R. A., S. M. Burgess, and D. Hirsh. 1986. Beta-glucuronidase from Escherichia coli as a gene fusion marker. Proc. Natl. Acad. Sci. USA 83:8447-8451) whose expression is controlled by a viral promoter. An example of such a virus is RV145 (Jones, T. R., V. P. Muzithras, and Y. Gluzman. 1991. Replacement mutagenesis of the human cytomegalovirus genome: US10 and US11 gene products are nonessential. J. Virol. 65:5860-5872). Since it is under the control of a viral promoter, beta-glucuronidase expression is an indirect indicator of growth and replication of HCMV in this assay. At 96 hours post-infection, the infected cell lysates are prepared (using 50mM sodium phosphate [pH7.0] containing 0.1% Triton X-100 and 0.1% sarkosyl) and assayed for beta-glucuronidase activity using a substrate for the enzyme which when cleaved yields either a product which can be measured colorimetrically in a spectrophotometer or fluorescently in a microfluorimeter. Examples of such substrates are p-nitrophenyl-beta-D-glucuronide and methylumbelliferylglucuronide, respectively. The presence of an antiviral compound is indicated by the reduced expression of the HCMV genome resident beta-glucuronidase gene, compared to the absence of inhibitor. […] Data from this assay generated using varying amounts of inhibitor compound is also used to estimate the IC50 of an inhibitor compound.

In another assay the test system is HSV- I. The assay can be described thus: HSV antiviral (ELISA) assay. It counts as cell-based. The settings on record: read-out: IC50 (ug/ml) HSV. The procedure: Vero cells (ATCC #CCL-81) are plated on 96-well tissue culture plates at 3.5x10^4 cells per 100µl tissue culture DMEM (Dulbecco's modified Eagle media) supplemented with 2% fetal bovine serum (FBS) in each well. After overnight incubation @ 37°C (in 5% CO2) and 30 minutes prior to infection with HSV- I (multiplicity of infection equal to 0.006), cells are either untreated, or treated with test compound (multiple concentrations) or reference standard drug control. After approximately 24 hours post-infection incubation @ 37°C (in 5% CO2), cells are fixed for ELISA assay. The primary antibody is murine anti-HSV glycoprotein D monoclonal primary antibody and the secondary antibody is goat anti-mouse IgG linked to β-galactosidase. Thus the extent of viral replication is determined by assessing β-galactosidase activity by quantifying the generation of the 4-methyl umbelliferone fluorescent cleavage product after addition of the methyl umbelliferyl-β-D-galactoside (Sigma #M1633) substrate on a microfluorimeter (365nm for excitation and 450nm for emission). Antiviral activity (IC50) of the test compound is determined by comparing the flourescence obtained in absence of compound to that obtained in the presence of compound.

The test system of another assay is VZV strain Ellen. The assay is described as follows: VZV antiviral (ELISA) assay. It counts as cell-based. The method, then:
For the generation of stock VZV to be used in the assay, VZV strain Ellen (ATCC #VR-1367) is used to infect human foreskin fibroblast (HFF) cells at low multiplicity (less than 0.1) and incubated overnight at 37°C in 5% CO2. After the overnight incubation, the mixture of uninfected and VZV-infected HFF infected cells are then harvested and added to each well of 96-well plates (3.5x10^4 cells in 100 µl DMEM supplemented with 2% FBS) which contain test compound or the reference standard drug control (in 100µl DMEM supplemented with 2% FBS per well). These cells are incubated for three days at 37°C in 5% CO2, then fixed for ELISA assay. The primary antibody is murine anti-VZV glycoprotein II monoclonal antibody (Applied Biosystems, Inc. #13-145-100) and the secondary antibody is goat anti-mouse IgG linked to β-galactosidase. Thus the extent of viral replication is determined by assessing β-galactosidase activity by quantifying the generation of the 4-methyl umbelliferone fluorescent cleavage product after addition of the methyl umbelliferyl-β-D-galactoside (Sigma #M1633) substrate on a microfluorimeter (365nm for excitation and 450nm for emission). Antiviral activity (IC50) of the test compound is determined by comparing the flourescence obtained in absence of compound to that obtained in the presence of compound.
(In general: In an ELISA, binding on a coated surface is turned into a signal by an enzyme label.)

Setting [2] is: read-out: IC50 ug/ml HCMV, HCMV, human foreskin fibroblasts.
Setting [3] is: Human alphaherpesvirus 3, VZV strain Ellen, HFF cells, ELISA, read-out: IC50 (ug/ml) VZV.

Here are results for 25 compounds from patent EP1137645B1, “ALPHA-METHYLBENZYL-CONTAINING THIOUREA INHIBITORS OF HERPES VIRUSES CONTAINING A […] GROUP” (Wyeth, priority 1998, dated 2000).

≈ marks a conversion by molar mass, not a printed value. Like-named read-outs stand apart in the source and are kept apart here.

For `CN(C)c1cc(CCNC(=S)Nc2ccc(NC(=O)c3ccccc3F)cc2)cc(C(F)(F)F)c1` [Example 653, N-(4-{3-[2-(3-Dimethylamino-5-trifluoromethyl-phenyl)-ethyl]-thioureido}-phenyl)-2-fluoro-benzamide], the IC50 in assay [1] (setting [2]) was over 0.5 µg/mL; with HSV- I (Vero), over 10 µg/mL. For `O=C(Nc1ccc(NC(=S)NCCSc2ccccc2)cc1)c1ccccc1F` [Example 656, 2-Fluoro-N-{4-[3-(2-phenylsulfanyl-ethyl)-thioureido]-phenyl}-benzamide] the same measures were over 0.5 µg/mL and 5 µg/mL (≈ 11.7 µM).

As to `O=C(Nc1ccc(NC(=S)NCc2cccc(I)c2)cc1)c1ccccc1F` [Example 661, 2-Fluoro-N-{4-[3-(3-iodo-benzyl)-thioureido]-phenyl}-benzamide], the IC50 in assay [1] (read-out: IC50 ug/ml HCMV) is over 0.5 µg/mL; in the assay on HSV- I (HSV- I, Vero cells, ELISA), over 10 µg/mL.

Turning to `O=C(Nc1ccc(NC(=S)NCCOc2cc(Cl)cc(Cl)c2)cc1)c1ccccc1F` [Example 664, N-(4-{3-[2-(3,5-Dichloro-phenoxy)-ethyl]-thioureido}-phenyl)-2-fluoro-benzamide], the IC50 is over 0.5 µg/mL in assay [1] (setting [2]) and 10 µg/mL (≈ 20.9 µM) in the assay with HSV- I (Vero).

For the compound `O=C(Nc1ccc(NC(=S)NCCOc2cccc(Cl)c2)cc1)c1ccccc1F` [Example 666, N-(4-{3-[2-(3-Chloro-phenoxy)-ethyl]-thioureido}-phenyl)-2-fluoro-benzamide], the IC50 is over 0.5 µg/mL in assay [1] (setting [2]) and 10 µg/mL (≈ 22.5 µM) with HSV- I (Vero). In the case of `O=C(Nc1ccc(NC(=S)NCc2cc(C(F)(F)F)ccc2F)cc1)c1ccccc1F` [Example 669, 2-Fluoro-N-{4-[3-(2-fluoro-5-trifluoromethyl-benzyl)-thioureido]-phenyl}-benzamide], the IC50 in assay [1] (read-out: IC50 ug/ml HCMV) is over 0.5 µg/mL; with HSV- I (HSV- I, Vero cells, ELISA) it was over 10 µg/mL. As for `O=C(Nc1ccc(NC(=S)NCc2ccc(F)c(F)c2)cc1)c1ccccc1F` [Example 672, N-{4-[3-(3,4-Difluoro-benzyl)-thioureido]-phenyl}-2-fluoro-benzamide], the IC50 was over 0.5 µg/mL in assay [1] (read-out: IC50 ug/ml HCMV) and over 10 µg/mL with HSV- I (HSV- I, Vero cells, ELISA).

For `Cc1cc(CCNC(=S)Nc2ccc(NC(=O)c3ccccc3F)cc2)ccc1N(C)C` [Example 673, N-(4-{3-[2-(4-Dimethylamino-3-methyl-phenyl)-ethyl]-thioureido}-phenyl)-2-fluoro-benzamide], the IC50 was over 0.5 µg/mL in assay [1] (setting [2]) and 7 µg/mL (≈ 15.5 µM) with HSV- I (Vero). For `O=C(Nc1ccc(NC(=S)NCc2ccc(F)c(Cl)c2)cc1)c1ccccc1F` [Example 677, N-{4-[3-(3-Chloro-4-fluoro-benzyl)-thioureido]-phenyl}-2-fluoro-benzamide] the same measures were over 0.5 µg/mL and over 10 µg/mL. For `O=C(Nc1ccc(NC(=S)NCCSc2cccc(Br)c2)cc1)c1ccccc1F` [Example 680, N-(4-{3-[2-(3-Bromo-phenylsulfanyl)-ethyl]-thioureido}-phenyl)-2-fluoro-benzamide] the same measures were over 0.5 µg/mL and over 10 µg/mL. For `CN1CCN(c2ccc(CNC(=S)Nc3ccc(NC(=O)c4ccccc4F)cc3)cc2C(F)(F)F)CC1` [Example 687, 2-Fluoro-N-(4-{3-[4-(4-methyl-piperazin-1-yl)-3-trifluoromethyl-benzyl]-thioureido}-phenyl)-benzamide] the same measures were over 0.5 µg/mL and 1.2 µg/mL (≈ 2.2 µM). Take `O=C(Nc1ccc(NC(=S)NCCOc2ccc(Br)cc2)cc1)c1ccccc1F` [Example 695, N-(4-{3-[2-(4-Bromo-phenoxy)-ethyl]-thioureido}-phenyl)-2-fluoro-benzamide]: the IC50 was over 3 µg/mL in assay [1] (setting [2]) and over 10 µg/mL in the assay on HSV- I (Vero). In the case of `O=C(Nc1ccc(NC(=S)NCCOc2ccc(I)cc2)cc1)c1ccccc1F` [Example 696, 2-Fluoro-N-(4-{3-[2-(4-iodo-phenoxy)-ethyl]-thioureido}-phenyl)-benzamide], the IC50 in assay [1] (read-out: IC50 ug/ml HCMV) is over 3 µg/mL; in the assay on HSV- I (HSV- I, Vero cells, ELISA), 10 µg/mL (≈ 18.7 µM). As for `O=C(Nc1ccc(NC(=S)NCCc2ccc(Cl)c(Cl)c2)cc1)c1ccccc1F` [Example 719, N-(4-{3-[2-(3,4-Dichloro-phenyl)-ethyl]-thioureido}-phenyl)-2-fluoro-benzamide], the IC50 in assay [1] (setting [2]) was over 0.5 µg/mL; with HSV- I (Vero), over 10 µg/mL. Take `O=C(Nc1ccc(NC(=S)NCCc2ccccc2F)cc1)c1ccccc1F` [Example 721, 2-Fluoro-N-(4-{3-[2-(2-fluoro-phenyl)-ethyl]-thioureido}-phenyl)-benzamide]: the IC50 with HSV- I (HSV- I, Vero cells, ELISA) is over 10 µg/mL. On to `CC(C)(C)c1ccc(CNC(=S)Nc2ccc(NC(=O)c3ccccc3F)cc2)cc1` [Example 724, N-{4-[3-(4-tert-Butyl-benzyl)-thioureido]-phenyl}-2-fluoro-benzamide], for which, in the assay with HSV- I (Vero), the IC50 is over 10 µg/mL. Still for that read-out and setting: the figure for `Cc1cc(C)cc(CNC(=S)Nc2ccc(NC(=O)c3ccccc3F)cc2)c1` [Example 725, N-{4-[3-(3,5-Dimethyl-benzyl)-thioureido]-phenyl}-2-fluoro-benzamide] is over 10 µg/mL; for `CC(C)(NC(=S)Nc1ccc(NC(=O)c2ccccc2F)cc1)c1ccccc1` [Example 727, 2-Fluoro-N-{4-[3-(1-methyl-1-phenyl-ethyl)-thioureido]-phenyl}-benzamide] it is over 10 µg/mL.

For the compound `COc1ccccc1C(=O)Nc1ccc(NC(=S)NC(C)c2ccc(F)cc2)cc1` (stereo not shown) [Example 752, N-(4-{3-(1-(4-Fluoro-phenyl)-ethyl]-thioureido}-phenyl)-2-methoxy-benzamide], the values for the IC50 (in assay [1] (setting [2]); in the assay on HSV- I (Vero)) were over 0.5 µg/mL and over 10 µg/mL, respectively.

Turning to `CC(NC(=S)Nc1ccc(NC(=O)c2ccc(N(C)C)cc2)cc1)c1ccc(F)cc1` (stereo not shown) [Example 765, 4-Dimethylamino-N-(4-{3-[1-(4-fluoro-phenyl)-ethyl]-thioureido}-phenyl)-benzamide], the figures for the IC50 (in assay [1] (setting [2]); in the assay on HSV- I (Vero)) were 2.3 µg/mL (≈ 5.27 µM) and 10 µg/mL (≈ 22.9 µM), respectively. In the case of `CCC(NC(=S)Nc1ccc(NC(=O)c2ccccc2F)cc1)c1ccc(F)cc1` (stereo not shown) [Example 771, 2-Fluoro-N-(4-{3-[1-(4-fluoro-phenyl)-propyl]-thioureido}-phenyl)-benzamide], the results for the IC50 (in assay [1] (setting [2]); in the assay with HSV- I (Vero)) were 0.4 µg/mL (≈ 0.94 µM) and over 10 µg/mL, respectively.

For `C[C@H](NC(=S)Nc1ccc(NC(=O)c2cc3ccccc3cn2)cc1)c1ccc(Br)cc1` [Example 1108, Isoquinoline-3-carboxylic acid (4-{3-[(1S)-1-(4-bromo-phenyl)-ethyl]-thioureido}-phenyl)-amide], the IC50 was 2.3 µg/mL (≈ 4.55 µM) in assay [1] (setting [2]) and 0.05 µg/mL (≈ 0.0989 µM) in the assay with VZV strain Ellen (Human alphaherpesvirus 3, HFF, read-out: IC50 (ug/ml) VZV, VZV strain Ellen, HFF cells, ELISA). For the compound `C[C@H](NC(=S)Nc1ccc(NC(=O)c2nccc3ccccc23)cc1)c1ccc(Cl)cc1` [Example 1109, Isoquinoline-1-carboxylic acid (4-{3-[(1S)-1-(4-chloro-phenyl)-ethyl]-thioureido) -phenyl)-amide], the results for the IC50 (in assay [1] (read-out: IC50 ug/ml HCMV); in the assay with VZV strain Ellen (setting [3])) were 4.4 µg/mL (≈ 9.54 µM) and 0.03 µg/mL (≈ 0.0651 µM), respectively. On to `CC(NC(=S)Nc1ccc(NC(=O)c2nccc3ccccc23)cc1)c1ccc(F)cc1` (stereo not shown) [Example 1110, Isoquinoline-1-carboxylic acid (4-{3-[1-(4-fluoro-phenyl)-ethyl]-thioureido}-phenyl)-amide], for which the IC50 in assay [1] (read-out: IC50 ug/ml HCMV) was 3.3 µg/mL (≈ 7.42 µM); in the assay with VZV strain Ellen (setting [3]), 0.05 µg/mL (≈ 0.112 µM). As to `C[C@H](NC(=S)Nc1ccc(NC(=O)c2nccc3ccccc23)cc1)c1ccc(C#N)cc1` [Example 1111], the IC50 in assay [1] (setting [2]) is over 10 µg/mL; in the assay on VZV strain Ellen (Human alphaherpesvirus 3, HFF, read-out: IC50 (ug/ml) VZV), 0.1 µg/mL (≈ 0.221 µM).
